This is an account of results in ChEMBL document CHEMBL5620355, “Discovery of intracellular self-assembly protein degraders driven by tumor-specific activatable bioorthogonal reaction” (Eur J Med Chem, 2023).

Data set [1] relates to HEK293. As to the kind of experiment: Cytotoxicity against HEK293 cells at low concentration incubated for 48 hrs in presence of 4-azido-N-(2-(2,6-dioxopiperidin-3-yl)-1,3-dioxoisoindolin-4-yl)butanamide by MTT assay. The format is toxicity, cell-based. The note with it: human, hek293, 48 h. On the technique in general: Tetrazolium assays rely on reduction of a dye to a coloured formazan, in cell work by metabolically active cells.

The subject of data set [2] is HEK293. As to the kind of experiment: Cytotoxicity against HEK293 cells at high concentration incubated for 48 hrs in presence of 4-azido-N-(2-(2,6-dioxopiperidin-3-yl)-1,3-dioxoisoindolin-4-yl)butanamide by MTT assay. The following applies: human, hek293, 48 h. The format is toxicity, cell-based.
Data set [3] has as its target T1, Ephrin type-B receptor 4 (Homo sapiens) (UniProt P54760).
T1 sequence (whole entry): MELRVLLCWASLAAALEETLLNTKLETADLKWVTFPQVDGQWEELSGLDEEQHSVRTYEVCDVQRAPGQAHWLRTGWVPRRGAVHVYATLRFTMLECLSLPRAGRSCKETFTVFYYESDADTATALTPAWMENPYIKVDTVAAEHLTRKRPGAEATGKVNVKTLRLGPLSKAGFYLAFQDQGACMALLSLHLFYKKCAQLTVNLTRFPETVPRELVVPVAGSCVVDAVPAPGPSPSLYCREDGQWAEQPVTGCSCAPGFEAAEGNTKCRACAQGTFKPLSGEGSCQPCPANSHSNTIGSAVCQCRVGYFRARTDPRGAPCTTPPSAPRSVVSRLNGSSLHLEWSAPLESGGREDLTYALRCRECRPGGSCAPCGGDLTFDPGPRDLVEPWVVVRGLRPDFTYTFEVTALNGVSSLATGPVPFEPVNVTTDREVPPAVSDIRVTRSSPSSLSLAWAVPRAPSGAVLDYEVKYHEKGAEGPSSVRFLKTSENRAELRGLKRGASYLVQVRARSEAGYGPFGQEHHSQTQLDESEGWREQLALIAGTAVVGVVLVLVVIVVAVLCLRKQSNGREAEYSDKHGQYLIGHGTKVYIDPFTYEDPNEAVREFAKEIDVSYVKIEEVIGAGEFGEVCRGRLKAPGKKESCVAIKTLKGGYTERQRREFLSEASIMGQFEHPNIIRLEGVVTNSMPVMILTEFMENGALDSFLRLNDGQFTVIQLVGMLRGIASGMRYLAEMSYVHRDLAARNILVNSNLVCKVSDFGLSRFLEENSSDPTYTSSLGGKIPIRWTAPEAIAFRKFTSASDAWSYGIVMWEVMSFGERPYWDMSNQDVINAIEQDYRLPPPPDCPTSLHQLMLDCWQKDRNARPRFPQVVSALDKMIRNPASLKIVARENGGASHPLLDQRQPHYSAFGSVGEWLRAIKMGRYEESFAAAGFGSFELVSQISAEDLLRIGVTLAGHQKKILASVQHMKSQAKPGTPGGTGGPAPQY
As to the kind of experiment: Induction of EphB4 degradation in human U87 cells at 10 uM incubated for 48 hrs in presence of 4-azido-N-(2-(2,6-dioxopiperidin-3-yl)-1,3-dioxoisoindolin-4-yl)butanamide by Western blot analysis. The format is cell-based. (In western blotting, separated proteins are transferred to a membrane and probed.)

The test system of data set [4] is U-87 MG. Briefly: Induction of apoptosis in human U87 cells assessed as early apoptotic cells at 0.1 uM incubated for 48 hrs in presence of (2S,4R)-1-((S)-2-(5-azidopentanamido)-3,3-dimethylbutanoyl)-4-hydroxy-N-(4-(4-methylthiazol-5-yl)benzyl)pyrrolidine-2-carboxamide by Annexin V-FLTC/PI staining based flow cytometry (reference value: 8.95 %). The format is functional, U-87MG ATCC.

Data set [5] concerns U-87 MG. As to the kind of experiment: Induction of apoptosis in human U87 cells assessed as viable cells at 1 uM incubated for 48 hrs in presence of (2S,4R)-1-((S)-2-(5-azidopentanamido)-3,3-dimethylbutanoyl)-4-hydroxy-N-(4-(4-methylthiazol-5-yl)benzyl)pyrrolidine-2-carboxamide by Annexin V-FLTC/PI staining based flow cytometry (reference value: 86.74 %). The format is functional, U-87MG ATCC. The following applies: read-out: Activity. For orientation: A flow cytometer gives signals particle by particle.

Data set [6] concerns U-87 MG. As to the kind of experiment: Induction of apoptosis in human U87 cells assessed as late apoptotic cells at 5 uM incubated for 48 hrs in presence of (2S,4R)-1-((S)-2-(5-azidopentanamido)-3,3-dimethylbutanoyl)-4-hydroxy-N-(4-(4-methylthiazol-5-yl)benzyl)pyrrolidine-2-carboxamide by Annexin V-FLTC/PI staining based flow cytometry (reference value: 3.71 %). The format is functional, U-87MG ATCC.

The test system of data set [7] is U-87 MG. Briefly: Induction of apoptosis in human U87 cells assessed as early apoptotic cells at 10 uM incubated for 48 hrs in presence of (2S,4R)-1-((S)-2-(5-azidopentanamido)-3,3-dimethylbutanoyl)-4-hydroxy-N-(4-(4-methylthiazol-5-yl)benzyl)pyrrolidine-2-carboxamide by Annexin V-FLTC/PI staining based flow cytometry (reference value: 8.95 %). The format is functional, U-87MG ATCC.

In data set [8] the test system is U-87 MG. As to the kind of experiment: Antiproliferative activity against human U87 cells incubated for 48 hrs in presence of 4-(4-(3-(4-chloro-3-(trifluoromethyl)phenyl)ureido)phenoxy)-N-(prop-2-yn-1-yl)picolinamide by MTT assay. The format is functional, cell-based, U-87MG ATCC.
Data set [9] relates to A549. As to the kind of experiment: Antiproliferative activity against human A549 cells incubated for 48 hrs in presence of 4-(4-(3-(4-chloro-3-(trifluoromethyl)phenyl)ureido)phenoxy)-N-(prop-2-yn-1-yl)picolinamide by MTT assay. Format: functional, cell-based. The following applies: A549, 48 h.
For data set [10], the system named is HEK293. Briefly: Cytotoxicity against HEK293 cells at high concentration incubated for 48 hrs in presence of 4-(4-(3-(4-chloro-3-(trifluoromethyl)phenyl)ureido)phenoxy)-N-(prop-2-yn-1-yl)picolinamide by MTT assay. Format: toxicity, cell-based. The note with it: human, hek293, 48 h.
Data set [11] deals with Vascular endothelial growth factor receptor 2 (Homo sapiens) (UniProt P35968). As to the kind of experiment: Induction of VEGFR2 degradation in human U87 cells at 10 uM incubated for 48 hrs by Western blot analysis. Format: cell-based.
Sequence of Vascular endothelial growth factor receptor 2 (Homo sapiens) (P35968 whole entry): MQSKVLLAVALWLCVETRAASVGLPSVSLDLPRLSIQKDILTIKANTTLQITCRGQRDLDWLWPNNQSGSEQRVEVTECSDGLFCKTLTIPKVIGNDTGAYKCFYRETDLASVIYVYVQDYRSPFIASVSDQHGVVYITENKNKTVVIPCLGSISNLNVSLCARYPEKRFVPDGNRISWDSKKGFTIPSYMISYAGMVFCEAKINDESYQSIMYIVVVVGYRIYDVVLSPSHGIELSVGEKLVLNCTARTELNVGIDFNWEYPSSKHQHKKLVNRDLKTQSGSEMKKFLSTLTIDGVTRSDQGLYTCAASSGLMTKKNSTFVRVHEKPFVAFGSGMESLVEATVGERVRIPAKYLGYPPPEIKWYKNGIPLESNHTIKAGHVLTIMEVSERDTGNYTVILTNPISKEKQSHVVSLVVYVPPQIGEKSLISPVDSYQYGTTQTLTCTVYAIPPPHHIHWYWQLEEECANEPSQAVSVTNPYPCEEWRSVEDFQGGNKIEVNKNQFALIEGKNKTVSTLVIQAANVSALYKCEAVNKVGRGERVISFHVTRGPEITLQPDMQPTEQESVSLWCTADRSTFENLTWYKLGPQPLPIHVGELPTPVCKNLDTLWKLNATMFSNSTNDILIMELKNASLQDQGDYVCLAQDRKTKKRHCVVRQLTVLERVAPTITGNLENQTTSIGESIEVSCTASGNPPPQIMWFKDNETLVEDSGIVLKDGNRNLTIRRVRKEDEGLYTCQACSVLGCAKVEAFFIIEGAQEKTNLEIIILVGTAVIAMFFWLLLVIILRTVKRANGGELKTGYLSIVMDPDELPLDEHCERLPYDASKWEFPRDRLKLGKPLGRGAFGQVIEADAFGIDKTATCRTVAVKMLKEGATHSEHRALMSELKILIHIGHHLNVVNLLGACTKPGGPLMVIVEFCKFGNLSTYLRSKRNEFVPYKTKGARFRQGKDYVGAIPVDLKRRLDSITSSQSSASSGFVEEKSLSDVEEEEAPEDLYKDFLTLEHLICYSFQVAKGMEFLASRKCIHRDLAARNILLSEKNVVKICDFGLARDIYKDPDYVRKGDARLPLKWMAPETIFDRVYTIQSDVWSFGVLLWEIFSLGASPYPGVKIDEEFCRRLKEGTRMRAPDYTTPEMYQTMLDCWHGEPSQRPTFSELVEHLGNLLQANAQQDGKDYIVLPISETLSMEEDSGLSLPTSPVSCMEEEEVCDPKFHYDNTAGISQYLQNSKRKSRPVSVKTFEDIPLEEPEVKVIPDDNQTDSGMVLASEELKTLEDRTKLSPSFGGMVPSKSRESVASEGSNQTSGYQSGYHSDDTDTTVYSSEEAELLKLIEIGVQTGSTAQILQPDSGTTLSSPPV
In data set [12] the target is T1, Ephrin type-B receptor 4 (Homo sapiens). As to the kind of experiment: Induction of EphB4 degradation in human U87 cells at 10 uM incubated for 48 hrs by Western blot analysis. The format is cell-based.
Data set [13] relates to U-87 MG. Briefly: Induction of apoptosis in human U87 cells assessed as viable cells at 0.1 uM incubated for 48 hrs in presence of 4-(4-(3-(4-chloro-3-(trifluoromethyl)phenyl)ureido)phenoxy)-N-(prop-2-yn-1-yl)picolinamide by Annexin V-FLTC/PI staining based flow cytometry (reference value: 86.74 %). The format is functional, U-87MG ATCC. The note with it: read-out: Activity.

The subject of data set [14] is U-87 MG. As to the kind of experiment: Induction of apoptosis in human U87 cells assessed as necrotic cells at 0.1 uM incubated for 48 hrs in presence of 4-(4-(3-(4-chloro-3-(trifluoromethyl)phenyl)ureido)phenoxy)-N-(prop-2-yn-1-yl)picolinamide by Annexin V-FLTC/PI staining based flow cytometry (reference value: 0.60 %). The format is functional, U-87MG ATCC.
Data set [15] has as its system U-87 MG. Briefly: Induction of apoptosis in human U87 cells assessed as early apoptotic cells at 5 uM incubated for 48 hrs in presence of 4-(4-(3-(4-chloro-3-(trifluoromethyl)phenyl)ureido)phenoxy)-N-(prop-2-yn-1-yl)picolinamide by Annexin V-FLTC/PI staining based flow cytometry (reference value: 8.95 %). Format: functional, U-87MG ATCC.
The test system of data set [16] is U-87 MG. Briefly: Induction of apoptosis in human U87 cells assessed as late apoptotic cells at 5 uM incubated for 48 hrs in presence of 4-(4-(3-(4-chloro-3-(trifluoromethyl)phenyl)ureido)phenoxy)-N-(prop-2-yn-1-yl)picolinamide by Annexin V-FLTC/PI staining based flow cytometry (reference value: 3.71 %). Format: functional, U-87MG ATCC.
The test system of data set [17] is U-87 MG. As to the kind of experiment: Induction of apoptosis in human U87 cells assessed as necrotic cells at 10 uM incubated for 48 hrs in presence of 4-(4-(3-(4-chloro-3-(trifluoromethyl)phenyl)ureido)phenoxy)-N-(prop-2-yn-1-yl)picolinamide by Annexin V-FLTC/PI staining based flow cytometry (reference value: 0.60 %). Format: functional, U-87MG ATCC.

The source made the active and inactive calls. The rule behind the calls is not given here.

Take `C#CCNC(=O)c1cc(Oc2ccc(NC(=O)Nc3ccc(Cl)c(C(F)(F)F)c3)cc2)ccn1`: the Activity entry is reported as “Non-Toxic” in data set [1]; “Toxic” in data set [2]; 10.27% in [4]; 73.25% in data set [6]; 0.08% in [7]. In addition, the outcome in data set [3] was Active. Moreover, the viability at 1 µM in data set [5] was determined as 81.6%.
Regarding `[N-]=[N+]=NCCCC(=O)Nc1cccc2c1C(=O)N(C1CCC(=O)NC1=O)C2=O` (configuration not stated), the IC50 – broadly, the concentration that gives 50% inhibition – was found to be 5.68 µM in data set [8] and 1.16 µM in data set [9]. For the same compound, the Activity result in [10] was “Toxic”; in [14], 1.02%; in data set [15], 0.05%; in data set [16] it was 73.25%; in data set [17], 25.6%. Moreover, the result in data set [11] and in [12] was Active. In addition, the viability at 0.1 µM in data set [13] was 85.3%.
